In experiment [1] the target is T1, human P2X2 receptor (Homo sapiens, UniProt Q9UBL9).
T1 construct: expressed in transfected cells; host or cells: S. cerevisiae BY4741 background, P2X2 genome-integrated under a galactose-inducible promoter
T1 sequence (Q9UBL9 1-471): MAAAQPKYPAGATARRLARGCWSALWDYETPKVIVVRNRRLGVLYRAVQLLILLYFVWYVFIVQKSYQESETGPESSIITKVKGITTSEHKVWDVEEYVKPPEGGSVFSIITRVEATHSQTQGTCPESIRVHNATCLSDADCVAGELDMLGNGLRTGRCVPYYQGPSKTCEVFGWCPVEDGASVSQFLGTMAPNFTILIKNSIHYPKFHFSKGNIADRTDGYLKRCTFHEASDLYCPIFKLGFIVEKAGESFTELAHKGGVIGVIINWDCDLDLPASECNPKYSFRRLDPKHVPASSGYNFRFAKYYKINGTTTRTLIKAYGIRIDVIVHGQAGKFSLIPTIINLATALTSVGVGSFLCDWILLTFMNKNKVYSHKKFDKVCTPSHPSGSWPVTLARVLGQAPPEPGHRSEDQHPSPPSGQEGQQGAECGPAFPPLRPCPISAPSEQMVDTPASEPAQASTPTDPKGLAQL
The experiment can be described thus: GCaMP calcium assay of P2X2 expressed in yeast S. cerevisiae, agonist response. In kind it is cell-based. Particulars: yeast; for EC50: read-out: EC50. An excerpt:
Although P2X receptors are expressed in many eukaryotic organisms including some fungi ([24]), they are not present in S. cerevisiae. For recombinant expression to yield functional P2X channels, receptor proteins must be correctly folded, assembled into trimers, and efficiently trafficked to the plasma membrane. To assess whether P2X ion channels could functionally gate in S. cerevisiae the canonical isoforms of P2X1-7 were co-expressed with aequorin, a calcium-activated photoprotein from the jellyfish Aequorea victoria.
(§1) Genetic knockouts of the calnexin homolog (ΔCne1p) and vacuolar calcium transporter (Δ Vcx1p) (n = 3) were compared to the WT yeast strain (n = 2). […] Statistical analysis was performed using one-way ANOVA with Dunnett’s multiple comparisons test where ∗∗ is p ≤ 0.01. […] Yeast were injected with ATP at 21 s and onset rates from the last six points (40–48 s) were used for calculating the dose response in (D). E and F, kinetic and dose–response measurements of P2X2 with the GCaMP reporter with ATP (n = 4), partial agonist BzATP (n = 3), and agonist 2-chloro-ATP (n = 4). Figures (D and F) share the figure legend with (C). […] Suramin was pre-equilibrated with P2X2-yeast for 10 min and 5 μM ATP was injected.
To expand the assay throughput to accommodate several 96-well plates at a time, we required the acquisition of short-duration signals. Since GCaMP signals are typically measured in terms of ΔF/F0, where ΔF is Fmax-Fmin, and since the signal takes several minutes to reach Fmax, we instead attempted to correlate the rate of signal onset (rather than its amplitude) with channel activity.
Having optimized our yeast strains and assay throughput, we sought to further validate the function of human P2X2 in the yeast host.
GCaMP assays were performed as follows. P2X2 GCaMP strains were designed with a bi-cistronic reporter, in which the GCaMP protein was followed by a 2A peptide and a mScarletI reporter ([53]). The co-translated mScarletI was designed to act as a control for plasmid loss, GCaMP breakage via nonsense mutation, and contamination. […] P2X2-GCaMP strains were cultured and induced as previously described. Samples were induced for 24 h to allow for the accumulation of the mature GCaMP protein. Cells were washed three times in 0.1 M MES/Tris buffer and resuspended with MES/Tris with supplemental calcium. Cells were loaded onto a black, clear bottom microplate and imaged on a FlexStation3 plate reader. Samples were imaged in “flex” mode. Samples were imaged for 48 s at an interval of 1.6 s. Fluorescence was measured with an excitation at 485 nm, and emission 525 nm. At the 21 s mark, 100 μl ligand solution was transferred to the cells. For strains with mScarlet, fluorescence was read with excitation 570 nm/emission 610 nm. Slopes were calculated from the last 6 points of measurement and were normalized to the positive control samples. Any replicate in which the mScarlet value was measured to be over 2 standard deviations less than the mean for that set was discarded from further analysis.

Experiment [2] concerns the target T1, human P2X2 receptor. Description: Suramin inhibition of ATP-stimulated P2X2 gating in yeast, GCaMP. Particulars: suramin pre-equilibrated 10 min, 5 μM ATP injected, n = 4; read-out: IC50 (second value in brackets) (converted). Type of experiment: cell-based. The procedure:
as §1, with “injected. […]” for “injected.”
GCaMP assays were performed as follows. […] Cells were loaded onto a black, clear bottom microplate and imaged on a FlexStation3 plate reader. […] Fluorescence was measured with an excitation at 485 nm, and emission 525 nm. […] For strains with mScarlet, fluorescence was read with excitation 570 nm/emission 610 nm. Slopes were calculated from the last 6 points of measurement and were normalized to the positive control samples. Any replicate in which the mScarlet value was measured to be over 2 standard deviations less than the mean for that set was discarded from further analysis.

The test system of experiment [3] is P2X2. Details: method as in PMID 12885270. To be noted: read-out: reported IC50 values; cited from earlier work.
In experiment [4] the test system is P2X2. Particulars: mammalian cells; cited from earlier work.
[5] abbreviates: kinetic and dose-response GCaMP assay, Fig. 1E-F.

Broadly, the EC50 is the concentration at which the effect is half-maximal. In general, IC50 refers to the point on the concentration scale where inhibition reaches its midpoint.

In the case of “2′(3′)-O-(4-Benzoylbenzoyl)adenosine-5′-triphosphate [BzATP]”, the “peak amplitudes relative to the canonical ATP ligand” value on human P2X2 receptor [1] (GCaMP kinetic assay) is on record as “less than 50%”. In addition, on human P2X2 receptor [1] (setting [5]), the pEC50 worked out at 5.89 ± 0.096 M and the half-maximal effective concentration (EC50) was determined as 1280 nM.
In the case of `Cc1ccc(C(=O)Nc2ccc(S(=O)(=O)O)c3cc(S(=O)(=O)O)cc(S(=O)(=O)O)c23)cc1NC(=O)c1cccc(NC(=O)Nc2cccc(C(=O)Nc3cc(C(=O)Nc4ccc(S(=O)(=O)O)c5cc(S(=O)(=O)O)cc(S(=O)(=O)O)c45)ccc3C)c2)c1` [suramin], the 50% inhibitory concentration (IC50) was 26.9 µM at human P2X2 receptor [2] and 10 µM with P2X2 [3].
`Nc1nc(Cl)nc2c1ncn2[C@@H]1O[C@H](COP(=O)(O)OP(=O)(O)OP(=O)(O)O)[C@@H](O)[C@H]1O` [2-Chloro ATP, 2-Chloro-Adenosinetriphosphate]: the EC50 was 1000 nM at human P2X2 receptor [1] (setting [5]) and 2500 nM with P2X2 [4].

Values taken from PMC11063903, “Engineering a human P2X2 receptor with altered ligand selectivity in yeast” (The Journal of Biological Chemistry, 2024).
